ChEMBL document CHEMBL3994623, “The synthesis and antistaphylococcal activity of 9, 13-disubstituted berberine derivatives” (Eur J Med Chem, 2017)
≈ marks a conversion by molar mass, not a printed value.

What was measured:
[1] = Cytotoxicity against HAF assessed as decrease in cell viability after 24 hrs by MTS assay; type: cell-based; settings: Homo sapiens
Staphylococcus aureus [2] = experiment: Antistaphylococcal activity against gentamicin-resistant Staphylococcus aureus NRS-108 after 18 hrs by two fold serial dilution method; type: functional; settings: NRS-108, 18 h
Staphylococcus aureus [3] = experiment: Antistaphylococcal activity against erythromycin-resistant Staphylococcus aureus NRS-70 after 18 hrs by two fold serial dilution method; type: functional; settings: NRS-70, 18 h
Staphylococcus aureus [4] = experiment: Antistaphylococcal activity against linezolid-resistant Staphylococcus aureus NRS-271 containing phage type E-MRSA after 18 hrs by two fold serial dilution method; type: functional; settings: NRS-271, 18 h
Staphylococcus aureus [5] = experiment: Antistaphylococcal activity against Staphylococcus aureus Newman after 18 hrs by two fold serial dilution method; type: functional
Staphylococcus aureus [6] = experiment: Antistaphylococcal activity against aminoglycosides/tetracycline-resistant Staphylococcus aureus NRS-1 after 18 hrs by two fold serial dilution method; type: functional; settings: NRS-1, 18 h
Staphylococcus aureus [7] = experiment: Antistaphylococcal activity against oxacillin/tetracycline-resistant Staphylococcus aureus NRS-100 after 18 hrs by two fold serial dilution method; type: functional; settings: NRS-100, 18 h
Staphylococcus aureus [8] = experiment: Potency index, ratio of totarol MIC to test compound MIC for erythromycin-resistant Staphylococcus aureus NRS-70; type: functional
Staphylococcus aureus [9] = experiment: Potency index, ratio of totarol MIC to test compound MIC for aminoglycosides/tetracycline-resistant Staphylococcus aureus NRS-1; type: functional
Staphylococcus aureus [10] = experiment: Potency index, ratio of totarol MIC to test compound MIC for oxacillin/tetracycline-resistant Staphylococcus aureus NRS-100; type: functional
Staphylococcus aureus [11] = experiment: Potency index, ratio of totarol MIC to test compound MIC for linezolid-resistant Staphylococcus aureus NRS-271 containing phage type E-MRSA; type: functional
Staphylococcus aureus [12] = experiment: Potency index, ratio of totarol MIC to test compound MIC for gentamicin-resistant Staphylococcus aureus NRS-108
[13] = Cytotoxicity against HAF assessed as effect on cell morphology at 12.5 ug/ml after 24 hrs by hematoxylin-eosin staining-based contrast microscopic method; settings: human
[14] = Cytotoxicity against HAF assessed as effect on cell morphology at […] ug/ml after 24 hrs by hematoxylin-eosin staining-based contrast microscopic method; settings: human

SMILES | IC50 [1] | MIC (Staphylococcus aureus [2]) | MIC (Staphylococcus aureus [3]) | MIC (Staphylococcus aureus [4]) | MIC (Staphylococcus aureus [5]) | MIC (Staphylococcus aureus [6]) | MIC (Staphylococcus aureus [7]) | other results
CCCCCNc1c(OC)ccc2c(Cc3ccc(F)cc3)c3[n+](cc12)CCc1cc2c(cc1-3)OCO2.[Br-] | 12.7 µg/mL | 1.56 µg/mL | 1.56 µg/mL | 1.56 µg/mL | 1.25 µg/mL | 3.13 µg/mL | 3.13 µg/mL | 
CN[C@H](CC(C)C)C(=O)N[C@H]1C(=O)N[C@@H](CC(N)=O)C(=O)N[C@H]2C(=O)N[C@H]3C(=O)N[C@H](C(=O)N[C@H](C(=O)O)c4cc(O)cc(O)c4-c4cc3ccc4O)[C@H](O)c3ccc(c(Cl)c3)Oc3cc2cc(c3O[C@@H]2O[C@H](CO)[C@@H](O)[C@H](O)[C@H]2O[C@H]2C[C@](C)(N)[C@H](O)[C@H](C)O2)Oc2ccc(cc2Cl)[C@H]1O [VANCOMYCIN] |  | 0.39 µg/mL (≈ 0.269 µM) | 0.39 µg/mL (≈ 0.269 µM) | 0.39 µg/mL (≈ 0.269 µM) | 0.78 µg/mL (≈ 0.538 µM) | 1.56 µg/mL (≈ 1.08 µM) | 0.78 µg/mL (≈ 0.538 µM) | 
COc1ccc2c(Cc3ccc(C)cc3)c3[n+](cc2c1OC)CCc1cc2c(cc1-3)OCO2.[Br-] |  |  |  |  | 6.25 µg/mL |  |  | 
CCCCNc1c(OC)ccc2c(Cc3ccc(C)cc3)c3[n+](cc12)CCc1cc2c(cc1-3)OCO2.[Br-] |  | 3.13 µg/mL | 1.56 µg/mL | 1.56 µg/mL | 1.56 µg/mL | 1.56 µg/mL | 1.56 µg/mL | 
CCCCCNc1c(OC)ccc2cc3[n+](cc12)CCc1cc2c(cc1-3)OCO2.[Cl-] |  |  |  |  | 3.13 µg/mL |  |  | 
CCCCNc1c(OC)ccc2c(Cc3ccc(F)cc3)c3[n+](cc12)CCc1cc2c(cc1-3)OCO2.[Br-] |  | 3.13 µg/mL | 3.13 µg/mL | 3.13 µg/mL | 2.5 µg/mL | 6.25 µg/mL | 6.25 µg/mL | 
COc1ccc2cc3[n+](cc2c1OC)CCc1cc2c(cc1-3)OCO2 [BERBERINE] |  |  |  |  | > 25 µg/mL |  |  | 
CCCCCNc1c(OC)ccc2c(Cc3cccs3)c3[n+](cc12)CCc1cc2c(cc1-3)OCO2.[Br-] |  |  |  |  | 3.13 µg/mL |  |  | 
CCCCNc1c(OC)ccc2c(Cc3ccc(OC)cc3)c3[n+](cc12)CCc1cc2c(cc1-3)OCO2.[Br-] |  | 3.13 µg/mL | 3.13 µg/mL | 6.25 µg/mL | 2.5 µg/mL | 6.25 µg/mL | 6.25 µg/mL | 
COc1ccc2c(Cc3ccccc3)c3[n+](cc2c1OC)CCc1cc2c(cc1-3)OCO2.[Br-] |  |  |  |  | 6.25 µg/mL |  |  | 
COc1ccc2c(Cc3ccc(C)cc3)c3[n+](cc2c1NCCCO)CCc1cc2c(cc1-3)OCO2.[Br-] |  |  |  |  | 6.25 µg/mL |  |  | 
CCCCCCNc1c(OC)ccc2c(Cc3ccc(F)cc3)c3[n+](cc12)CCc1cc2c(cc1-3)OCO2.[Br-] |  | 3.13 µg/mL | 3.13 µg/mL | 3.13 µg/mL | 1.56 µg/mL | 3.13 µg/mL | 6.25 µg/mL | 
CCCCCNc1c(OC)ccc2c(Cc3ccccn3)c3[n+](cc12)CCc1cc2c(cc1-3)OCO2.[Br-] |  |  |  |  | 12.5 µg/mL |  |  | 
CCCCCNc1c(OC)ccc2c(Cc3ccc(C)cc3)c3[n+](cc12)CCc1cc2c(cc1-3)OCO2.[Br-] | 12.5 µg/mL | 1.56 µg/mL | 1.56 µg/mL | 1.56 µg/mL | 0.78 µg/mL | 1.56 µg/mL | 0.78 µg/mL | Ratio (Staphylococcus aureus [8]): 1 - 4; Ratio (Staphylococcus aureus [9]): 1 - 4; Ratio (Staphylococcus aureus [10]): 1 - 4; Ratio (Staphylococcus aureus [11]): 1 - 4; Ratio (Staphylococcus aureus [12]): 1 - 4; Activity [13]: Toxic; Activity [14]: Non-Toxic
CCCCCNc1c(OC)ccc2c(CC(=O)OCC)c3[n+](cc12)CCc1cc2c(cc1-3)OCO2.[Br-] |  |  |  |  | 12.5 µg/mL |  |  | 
CCCCCNc1c(OC)ccc2c(CCCN3CCOCC3)c3[n+](cc12)CCc1cc2c(cc1-3)OCO2.[I-] |  |  |  |  | > 25 µg/mL |  |  | 

SMILES | IC50 [1] | MIC (Staphylococcus aureus [2]) | MIC (Staphylococcus aureus [3]) | MIC (Staphylococcus aureus [4]) | MIC (Staphylococcus aureus [5]) | MIC (Staphylococcus aureus [6]) | MIC (Staphylococcus aureus [7]) | other results
CCCCCNc1c(OC)ccc2c(CC(=O)O)c3[n+](cc12)CCc1cc2c(cc1-3)OCO2.[Br-] |  |  |  |  | 25 µg/mL |  |  | 
CCCCCNc1c(OC)ccc2c(CCCN3CCCC3)c3[n+](cc12)CCc1cc2c(cc1-3)OCO2.[I-] |  |  |  |  | > 25 µg/mL |  |  | 
CCCCCCNc1c(OC)ccc2c(Cc3ccc(OC)cc3)c3[n+](cc12)CCc1cc2c(cc1-3)OCO2.[Br-] |  | 3.13 µg/mL | 3.13 µg/mL | 6.25 µg/mL | 2.5 µg/mL | 6.25 µg/mL | 3.13 µg/mL | 
CCCCCCNc1c(OC)ccc2c(Cc3ccccc3)c3[n+](cc12)CCc1cc2c(cc1-3)OCO2.[Br-] |  | 3.13 µg/mL | 1.56 µg/mL | 3.13 µg/mL | 2.5 µg/mL | 1.56 µg/mL | 3.13 µg/mL | 
COc1ccc2c(Cc3ccc(C)cc3)c3[n+](cc2c1NCCCc1ccccc1)CCc1cc2c(cc1-3)OCO2.[Br-] |  |  |  |  | 3.13 µg/mL |  |  | 
CCCCCNc1c(OC)ccc2c(Cc3ccc(OC)cc3)c3[n+](cc12)CCc1cc2c(cc1-3)OCO2.[Br-] | 13.8 µg/mL | 1.56 µg/mL | 1.56 µg/mL | 1.56 µg/mL | 1.25 µg/mL | 1.56 µg/mL | 3.13 µg/mL | 
CCCCNc1c(OC)ccc2c(Cc3ccccc3)c3[n+](cc12)CCc1cc2c(cc1-3)OCO2.[Br-] | > 20 µg/mL |  |  |  | 3.13 µg/mL |  |  | 
CCCCCCNc1c(OC)ccc2c(Cc3ccc(C)cc3)c3[n+](cc12)CCc1cc2c(cc1-3)OCO2.[Br-] | 12.8 µg/mL | 1.56 µg/mL | 1.56 µg/mL | 1.56 µg/mL | 1.56 µg/mL | 1.56 µg/mL | 1.56 µg/mL | Ratio (Staphylococcus aureus [8]): 1 - 4; Ratio (Staphylococcus aureus [9]): 1 - 4; Ratio (Staphylococcus aureus [10]): 1 - 4; Ratio (Staphylococcus aureus [11]): 1 - 4; Ratio (Staphylococcus aureus [12]): 1 - 4; Activity [13]: Toxic; Activity [14]: Non-Toxic
CCCCCNc1c(OC)ccc2c(Cc3ccc(C)c(C)c3)c3[n+](cc12)CCc1cc2c(cc1-3)OCO2.[Br-] | 12.5 µg/mL | 1.56 µg/mL | 1.56 µg/mL | 1.56 µg/mL | 1.25 µg/mL | 3.13 µg/mL | 1.56 µg/mL | 
CCCCCNc1c(OC)ccc2c(Cc3cccc(C)c3)c3[n+](cc12)CCc1cc2c(cc1-3)OCO2.[Br-] | 12.7 µg/mL | 1.56 µg/mL | 1.56 µg/mL | 1.56 µg/mL | 1.25 µg/mL | 3.13 µg/mL | 3.13 µg/mL | 
CCCCCNc1c(OC)ccc2c(Cc3ccc(O)cc3)c3[n+](cc12)CCc1cc2c(cc1-3)OCO2.[Br-] | > 20 µg/mL | 3.13 µg/mL | 1.56 µg/mL | 3.13 µg/mL | 2.5 µg/mL | 6.25 µg/mL | 3.13 µg/mL | Activity [13]: Toxic; Activity [14]: Non-Toxic
CCCCCNc1c(OC)ccc2c(Cc3ccccc3)c3[n+](cc12)CCc1cc2c(cc1-3)OCO2.[Br-] | 15.8 µg/mL | 1.56 µg/mL | 1.56 µg/mL | 1.56 µg/mL | 1.56 µg/mL | 3.13 µg/mL | 1.56 µg/mL | 
CCCCCNc1c(OC)ccc2c(Cc3ccccc3C)c3[n+](cc12)CCc1cc2c(cc1-3)OCO2.[Br-] | 13 µg/mL | 1.56 µg/mL | 1.56 µg/mL | 3.13 µg/mL | 1.25 µg/mL | 3.13 µg/mL | 3.13 µg/mL | 
CCCCCNc1c(OC)ccc2c(Cc3ccc(C(F)(F)F)cc3)c3[n+](cc12)CCc1cc2c(cc1-3)OCO2.[Br-] | 11.4 µg/mL | 1.56 µg/mL | 1.56 µg/mL | 1.56 µg/mL | 1.25 µg/mL | 1.56 µg/mL | 1.56 µg/mL | Ratio (Staphylococcus aureus [8]): 1 - 4; Ratio (Staphylococcus aureus [9]): 1 - 4; Ratio (Staphylococcus aureus [10]): 1 - 4; Ratio (Staphylococcus aureus [11]): 1 - 4; Ratio (Staphylococcus aureus [12]): 1 - 4; Activity [13]: Toxic; Activity [14]: Non-Toxic
CCCCCNc1c(OC)ccc2c(CCCN3CCCCC3)c3[n+](cc12)CCc1cc2c(cc1-3)OCO2.[I-] |  |  |  |  | > 25 µg/mL |  |  | 
